Laboratory results reported in patent publication US20260306657A1, “LIPOSOME CONJUGATE TARGETING M2 MACROPHAGE AND USE THEREOF” (HANGZHOU NORMAL UNIVERSITY, priority 2022, published 2026).

Assays:
M2 macrophages = assay: Cytotoxicity of ELE on M1 and M2 macrophages (CCK-8 method); type: cell-based; details: 24 h, at 5 concentrations (10-160 μg/mL), * P<0.05, n=3
Description: (2) The toxicity of ELE on M1 and M2 macrophages was studied using the CCK-8 method. RAW264.7 cells were pre-treated to polarize into M1 and M2 macrophages, and the M1 and M2 macrophages (2×10^5 cells/well) were inoculated in a 96-well plate. After culturing for 24 h, the cells were treated with 100 μL of DMEM high-glucose media containing ELE (drug concentrations being 10 μg/mL, 20 μg/mL, 40 μg/mL, 80 μg/mL, and 160 μg/mL, respectively) for 24 h. ELE was dissolved and diluted in medium containing 1% % ethanol, and untreated cells were used as a control. 100 μL of 10% CCK-8 solution was added into each well and incubated for 2 h. The absorbance at 450 nm was measured using an enzyme-labeled instrument, and the IC 50 values of each group of drugs were calculated and analyzed using Graphpad Prism 9.0. A schematic diagram of the cytotoxicity of different concentrations of ELE on M1 and M2 macrophages is shown in FIG. 6, where n=3, x±SD, * P<0.05, *** P<0.001, **** P<0.0001.

4T1 breast cancer cells = assay: Cytotoxicity on 4T1 breast cancer cells (CCK-8 method); type: cell-based; details: 24 h, CCK-8, n=3
Description: Cytotoxicity Studies of Tumor-Targeted Liposomes:
(1) The toxicity of ELE to 4T1 breast cancer cells was studied using a CCK-8 method. 4T1 cells (2×10^4 cells/well) were inoculated in a 96-well plate. After culturing for 24 h, the cells were treated with RMPI-1640 media containing ELE, ELE/Lipo, ELE/Lipo-AS1411, and FA-ELE/Lipo-AS1411 (drug concentrations being 10 μg/mL, 20 μg/mL, 40 μg/mL, 80 μg/mL, and 160 μg/mL, respectively) for 24 h. ELE was dissolved and diluted in medium containing 1% 0 ethanol, and untreated cells were used as a control. 100 μL of 10% CCK-8 solution was added into each well and incubated for 2 h. The absorbance at 450 nm was measured using an enzyme-labeled instrument, and the IC50 value of each drug group was calculated and analyzed using Graphpad9.0. A schematic diagram of the cytotoxicity of different concentrations of free ELE, ELE/Lipo, ELE/Lipo-AS1411, and FA-ELE/Lipo-AS1411 on 4T1 cells was shown in FIG. 5, where n=3, x±SD, ** P<0.01, *** P<0.001, **** P<0.0001 (vs. ELE); #P<0.05, ###P<0.001 (vs. ELE/Lipo-AS1411).

Q: How did the “toxic effect on M2 macrophages (vs. M1 macrophages)” value (M2 macrophages) turn out when Elemene was run?
A: selective toxic effect on M2 macrophages

Q: And the IC50 (4T1 breast cancer cells)?
A: 921.4 µg/mL
